Among the test systems are 786-0 renal; HCT-15 colon; HL-60(TB) leukemia; MALME-3M melanoma; OVCAR-4 ovarian; OVCAR-8 ovarian; SF-295 CNS; SK-MEL-5 melanoma; SR leukemia; U251 CNS.
Common to all, as to assay: NCI tumour cell line growth inhibition, 48 h

The values that follow come from PubChem BioAssay (NCI).

Where “and” joins values, the source holds several entries; their conditions need not be identical. Equal values may be shown once.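 96-well plates; 48 h exposure; 5 concentrations. Endpoints by linear interpolation between flanking doses. Not reached: highest tested concentration assigned. GI50 marks 50% less growth. Definition used: TGI = concentration required for complete inhibition of growth.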

As to `C=C(C)[C@@H]1CC[C@]2(COC3CCCCO3)CC[C@]3(C)[C@H](CC[C@@H]4[C@@]5(C)C=C(C=O)C(=O)C(C)(C)[C@@H]5CC[C@]43C)[C@@H]12` (some centres undefined), the GI50 is 1.65 µM in the assay with 786-0 renal; 1.77 µM with HCT-15 colon; 1.56 µM with HL-60(TB) leukemia; 1.66 µM in the assay on MALME-3M melanoma; 2.01 µM in the assay with OVCAR-4 ovarian; 1.49 µM in the assay with OVCAR-8 ovarian. Besides, the GI50 in the assay on SF-295 CNS was 1.5 µM; in the assay on SK-MEL-5 melanoma it was 1.58 µM; in the assay with SR leukemia, 1.52 µM; in the assay with U251 CNS, 1.18 µM. Also, the TGI in the assay on 786-0 renal came to 3.09 µM; in the assay on HCT-15 colon, 3.97 µM; in the assay on HL-60(TB) leukemia, 5.37 µM; in the assay on MALME-3M melanoma, 3.45 µM; with OVCAR-4 ovarian it was 3.89 µM; with OVCAR-8 ovarian, 3.86 µM. The TGI in the assay with SF-295 CNS turned out to be 2.96 µM; in the assay with SK-MEL-5 melanoma, 2.93 µM; in the assay on SR leukemia, 6.78 µM; with U251 CNS, 2.71 µM.
Take `COc1ccc(-c2cc(-c3cc(OC)c(OC)c(OC)c3)c(C#N)c(N3CCOCC3)n2)cc1O`: the GI50 in the assay on 786-0 renal was 51.2 µM; with HCT-15 colon, 1.89 µM; with HL-60(TB) leukemia, 1.34 µM; with MALME-3M melanoma, above 100 µM; in the assay on OVCAR-4 ovarian, 47.9 µM; in the assay on OVCAR-8 ovarian, 6.11 µM. For the same compound, the GI50 is 6.38 µM in the assay on SF-295 CNS, 3.3 µM with SK-MEL-5 melanoma, 1.1 µM in the assay with SR leukemia and 3.4 µM in the assay with U251 CNS. Also, the TGI in the assay on 786-0 renal was above 100 µM; in the assay on HCT-15 colon, above 60.3 µM; in the assay with HL-60(TB) leukemia, 3.87 µM; with MALME-3M melanoma, above 100 µM; in the assay on OVCAR-4 ovarian, above 100 µM; in the assay with OVCAR-8 ovarian, above 100 µM. In addition, the TGI in the assay with SF-295 CNS was above 73.8 µM; in the assay with SK-MEL-5 melanoma, above 75.2 µM; in the assay with SR leukemia, above 100 µM; in the assay on U251 CNS, above 94.1 µM.
On to `O=C(O)c1ccc2c(c1)nc(Nc1cccc(Cl)c1)c1ccncc12`, for which the GI50 with 786-0 renal was 3.7 µM and 4.2 µM; with HCT-15 colon it was 3.12 µM and 2.92 µM; in the assay on HL-60(TB) leukemia, 2.88 µM and 4.98 µM; in the assay with MALME-3M melanoma it was 1.91 µM and 2.68 µM; with OVCAR-4 ovarian, 2.09 µM and 4.08 µM; with OVCAR-8 ovarian, 4.1 µM and 3.3 µM. Further, the GI50 with SF-295 CNS was 2.74 µM and 3.17 µM; with SK-MEL-5 melanoma, 1.86 µM and 2.08 µM; in the assay on SR leukemia, 2.04 µM and 2.63 µM; in the assay with U251 CNS, 1.82 µM and 1.38 µM. The TGI is 18.6 µM and > 10 µM in the assay with 786-0 renal; 21.7 µM and > 10 µM with HCT-15 colon; 7.67 µM and > 10 µM in the assay with HL-60(TB) leukemia; 7.71 µM and > 10 µM in the assay on MALME-3M melanoma; 21.6 µM and > 10 µM with OVCAR-4 ovarian; above 75.4 µM with OVCAR-8 ovarian. For the same compound, the TGI is above 42.9 µM in the assay on SF-295 CNS; 4.76 µM and 5.38 µM in the assay with SK-MEL-5 melanoma; 6.3 µM and 9.2 µM in the assay on SR leukemia.
Consider `CN(C[C@@H]1COCCO1)S(=O)(=O)Nc1ccc2ccc3ncc(-c4cnn(C)c4)cc3c(=O)c2c1`, for which the GI50 in the assay on 786-0 renal was 6.04 µM; in the assay with HCT-15 colon, 3.64 µM; in the assay with HL-60(TB) leukemia it was 6.77 µM; with MALME-3M melanoma it was 5.43 µM; in the assay with OVCAR-4 ovarian, 5.65 µM; in the assay with OVCAR-8 ovarian it was 5.04 µM. Also, the GI50 with SF-295 CNS is 0.632 µM; in the assay on SK-MEL-5 melanoma, 6.42 µM; with SR leukemia, 3.05 µM; in the assay on U251 CNS it was 2.34 µM. For the same compound, the TGI with 786-0 renal, with HCT-15 colon, in the assay on HL-60(TB) leukemia, with MALME-3M melanoma, in the assay on OVCAR-4 ovarian and in the assay with OVCAR-8 ovarian was above 100 µM each time. Moreover, the TGI is above 34.2 µM with SF-295 CNS, above 100 µM with SK-MEL-5 melanoma, above 100 µM in the assay with SR leukemia and above 100 µM in the assay with U251 CNS.
As to `NC(=O)/C=C/NC(=O)/C=N\O`, the TGI in the assay with 786-0 renal, with HCT-15 colon, in the assay with HL-60(TB) leukemia, in the assay on MALME-3M melanoma, with OVCAR-4 ovarian and in the assay on OVCAR-8 ovarian was above 100 µM in each case. In addition, the TGI in the assay on SF-295 CNS, with SK-MEL-5 melanoma, with SR leukemia and in the assay with U251 CNS was above 100 µM throughout.
In the case of `O=C(O)C1(Cc2cccc(Nc3nccs3)n2)CCC(Oc2cccc(Cl)c2F)CC1` (centres undefined), the GI50 in the assay on 786-0 renal is 15.5 µM; with HCT-15 colon, 3.34 µM; with HL-60(TB) leukemia it was 3.43 µM; in the assay with MALME-3M melanoma it was 20.5 µM; in the assay on OVCAR-4 ovarian, 25.8 µM; in the assay on OVCAR-8 ovarian, 18.9 µM. Besides, the GI50 in the assay with SF-295 CNS is 1.31 µM; with SK-MEL-5 melanoma, 14.8 µM; in the assay on SR leukemia it was 0.419 µM; in the assay on U251 CNS it was 24.4 µM. In addition, the TGI was 40.3 µM in the assay on 786-0 renal; 25.2 µM in the assay with HCT-15 colon; above 67.3 µM in the assay on HL-60(TB) leukemia; 54.3 µM in the assay on MALME-3M melanoma; above 100 µM in the assay on OVCAR-4 ovarian; above 100 µM in the assay with OVCAR-8 ovarian. In addition, the TGI in the assay with SF-295 CNS was 27.9 µM; in the assay with SK-MEL-5 melanoma, 28.7 µM; with SR leukemia it was 50.3 µM; with U251 CNS, above 54.8 µM.
For `O=[N+]([O-])c1ccc2ncccc2c1Cl`, the GI50 in the assay on 786-0 renal is 3.28 µM; with HCT-15 colon, 3.43 µM; in the assay on HL-60(TB) leukemia it was 1.92 µM; in the assay on MALME-3M melanoma it was 15.2 µM; in the assay with OVCAR-8 ovarian, 2.96 µM; in the assay with SK-MEL-5 melanoma, 2.95 µM. Besides, the GI50 was 0.308 µM with SR leukemia and 3.38 µM in the assay on U251 CNS. For the same compound, the TGI with 786-0 renal was 20.4 µM; with HCT-15 colon it was 14.4 µM; with HL-60(TB) leukemia it was 7.78 µM; in the assay on MALME-3M melanoma, 54.4 µM; in the assay with OVCAR-8 ovarian, 8.69 µM; in the assay with SK-MEL-5 melanoma it was 10 µM. Besides, the figures for the TGI in the assay with SR leukemia and in the assay with U251 CNS were 4.12 µM and 11.8 µM, respectively.
For `CC(C)(C)C(=O)O[C@@H]1COC2C(O)COC21` (some centres undefined), the TGI in the assay with 786-0 renal, in the assay with HL-60(TB) leukemia, with MALME-3M melanoma, in the assay with OVCAR-4 ovarian, in the assay with OVCAR-8 ovarian and with SF-295 CNS was above 100 µM in each case. Moreover, the TGI in the assay with SK-MEL-5 melanoma, with SR leukemia and with U251 CNS was above 100 µM each time.
